Test system: STZ induced diabetic nephropathy in rats
Assay: Study 4: HCQ and its combination with Losartan, Telmisartan, Azilsartan and Ramipril, with Glimepiride control
Assay type: in vivo, Wistar rats
Details: for HDL / TC / TG / GSH / TBARS / Total protein kidney / Creatinine / Total protein / Urea: after 8th week; for Glucose Day1 / Glucose Day14 / Glucose Day28 / Glucose Day42 / Glucose Day56: blood; for GSH / TBARS / Total protein kidney: kidney homogenate; for Creatinine / Total protein / Urea: serum
Method: The methods described in Terri et al, Diabetes Volume, 1997, 46:1612-1618, and Takashi et al, Jpn J. Pharmacol, 1997, 75, 59-64, were followed for inducing Diabetes in rats by injecting Streptozotocin. The Efficacy of the drugs was tested in two different models, one involving comparison with diabetic control (i.e. Diabetic Rats not treated with any medication) and the other involving comparison with the anti-diabetic control group (i.e. Diabetic rats administered Glimepiride) in two separate studies.
Wistar rats of either sex weighing 150-200 g were divided randomly into 28 groups consisting of 6 animals each. Diabetes was induced in rats by single administration of streptozotocin (55 mg/kg/i.p) dissolved in 0.1 M-citrate buffer, pH 4.5. Group 1 (normal control) consisted of normal rats that neither received streptozotocin nor any test drug; Group 2 served as Diabetic control; Group 3 was diabetic rats treated with Hydroxychloroquine (35 mg/kg); Group 4 was diabetic rats treated with Hydroxychloroquine (45 mg/kg) and Group 5 was diabetic rats treated with Hydroxychloroquine (70 mg/kg); Group 6 was diabetic rats treated with Losartan (5.5 mg/kg); Group 7 was diabetic rats treated with Losartan (11 mg/kg); Group 8 was diabetic rats treated with combination of Losartan (5.5 mg/kg) and Hydroxychloroquine (45 mg/kg); Group 9 was diabetic rats treated with combination of Losartan (11 mg/kg) and Hydroxychloroquine (35 mg/kg); Group 10 was diabetic rats treated with Ramipril (0.6 mg/kg); Group 11 was diabetic rats treated with Ramipril (0.3 mg/kg); Group 12 was diabetic rats treated with combination of Ramipril (0.6 mg/kg) and Hydroxychloroquine (35 mg/kg); Group 13 was diabetic rats treated with combination of Ramipril (0.3 mg/kg) and Hydroxychloroquine (45 mg/kg); Group 14 was diabetic rats treated with combination of Ramipril (0.6 mg/kg) and Hydroxychloroquine (45 mg/kg); Group 15 was diabetic rats treated with combination of Ramipril (0.3 mg/kg) and Hydroxychloroquine (35 mg/kg); Group 16 was diabetic rats treated with Telmisartan (9.5 mg/kg); Group 17 was diabetic rats treated with Telmisartan (4.5 mg/kg); Group 18 was diabetic rats treated with combination of Telmisartan (9.5 mg/kg) and Hydroxychloroquine (35 mg/kg); Group 19 was diabetic rats treated with combination of Telmisartan (4.5 mg/kg) and Hydroxychloroquine (45 mg/kg); Group 20 was diabetic rats treated with combination of Telmisartan (9.5 mg/kg) and Hydroxychloroquine (45 mg/kg); Group 21 was diabetic rats treated with combination of Telmisartan (4.5 mg/kg) and Hydroxychloroquine (35 mg/kg); Group 22 was diabetic rats treated with Azilsartan (4.5 mg/kg); Group 23 was diabetic rats treated with Azilsartan (2.5 mg/kg); Group 24 was diabetic rats treated with combination of Azilsartan (4.5 mg/kg) and Hydroxychloroquine (35 mg/kg); Group 25 was diabetic rats treated with combination of Azilsartan (2.5 mg/kg) and Hydroxychloroquine (45 mg/kg); Group 26 was diabetic rats treated with combination of Azilsartan (4.5 mg/kg) and Hydroxychloroquine (45 mg/kg); Group 27 was diabetic rats treated with combination of Azilsartan (2.5 mg/kg) and Hydroxychloroquine (35 mg/kg); Group 28 served as Anti-Diabetic control wherein diabetic rats were treated with antidiabetic drug Glimepiride (GLM) (1 mg/kg).
The study drugs were dissolved/suspended in vehicle and administered orally once a day for eight weeks. The diabetes mellitus induced nephropathy was assessed by estimating the level of serum urea, serum creatinine and total serum protein content after completion of eighth week of study. TBARS, GSH and Total Protein were measured as markers of renal oxidative stress in Kidney Homogenate after completion of eighth week of study. Blood glucose levels were also assessed at weekly interval.

[1] = dose mg/kg: HCQ 35, LT 5.5, RM 0.3, TL 4.5, AZ 2.5, alone or combined with HCQ 35
[2] = dose mg/kg: HCQ 45, LT 11, RM 0.6, TL 9.5, AZ 4.5, alone or combined with HCQ 45

CCCc1nc2c(C)cc(-c3nc4ccccc4n3C)cc2n1Cc1ccc(-c2ccccc2C(=O)O)cc1 [Telmisartan]
HDL [1]: 26 ± 1.67 mg/dL
TC [1]: 138.67 ± 3.93 mg/dL
TG [1]: 100.33 ± 5.57 mg/dL
HDL [2]: 26.83 ± 1.47 mg/dL
TC [2]: 141.5 ± 2.88 mg/dL
TG [2]: 97.67 ± 6.09 mg/dL
Glucose Day1 [1]: 281.83 ± 12.46 mg/dL
Glucose Day1 [2]: 275.33 ± 15.45 mg/dL
Glucose Day14 [1]: 221.83 ± 12.37 mg/dL
Glucose Day14 [2]: 221.5 ± 16.02 mg/dL
Glucose Day28 [1]: 181.83 ± 5.04 mg/dL
Glucose Day28 [2]: 184.33 ± 8.31 mg/dL
Glucose Day42 [1]: 162 ± 9.21 mg/dL
Glucose Day42 [2]: 159.83 ± 7.03 mg/dL
Glucose Day56 [1]: 139 ± 7.85 mg/dL
Glucose Day56 [2]: 141 ± 7.07 mg/dL
GSH [1]: 0.86 ± 0.06 nM/mg
TBARS [1]: 0.65 ± 0.15 nM/mg
Total protein kidney [1]: 879.17 ± 29.41 µg/mL
GSH [2]: 0.96 ± 0.11 nM/mg
TBARS [2]: 0.54 ± 0.14 nM/mg
Total protein kidney [2]: 864.5 ± 25.65 µg/mL
Creatinine [1]: 3.68 ± 0.31 mg/dL
Total protein [1]: 4.93 ± 0.23 g/dL
Urea [1]: 42.67 ± 2.5 mg/dL
Creatinine [2]: 3.91 ± 0.15 mg/dL
Total protein [2]: 4.61 ± 0.18 g/dL
Urea [2]: 41.5 ± 2.35 mg/dL

From patent US20160030415A1, “TREATMENT AND PROPHYLAXIS OF KIDNEY DISEASES” (priority 2013, published 2016)
